What was measured:
[1] = system: IPOHE (Morningglory, Ivyleaf); assay: Postemergence herbicidal evaluation; format: in vivo, Ipomoea hederacea
In short: (§1)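 Visual 0-9 injury score (stand, vigor, malformation, size, chlorosis, appearance vs untreated) taken four to five weeks post-spray, averaged across repeat tests. Test plants about two weeks old; foliar spray of acetone/water (1:1) with 0.5% surfactant delivering ~0.0156-0.500 kg active/ha.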

[2] = system: ZEAMX (Corn, Field); assay: Preemergence herbicidal evaluation; format: in vivo, Zea mays; conditions: rated 4-5 weeks after treatment
In short: (§2)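 Seeds were planted in potting soil in cups, then sprayed preemergence with the test compound in aqueous acetone at about 0.0156 to 0.500 kg per hectare. Cups were kept under greenhouse conditions and visually rated 4–5 weeks after treatment on a 0–9 scale against an untreated control.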

[3] = system: IPOHE (Morningglory, Ivyleaf); assay: Preemergence herbicidal evaluation; format: in vivo, Ipomoea hederacea; conditions: rated 4-5 weeks after treatment
In short: as §2

[4] = system: ECHCG (Barnyardgrass); assay: Preemergence herbicidal evaluation; format: in vivo, Echinochloa crus-galli; conditions: rated 4-5 weeks after treatment
In short: as §2

[5] = system: GALAP (Galium); assay: Postemergence herbicidal evaluation; format: in vivo, Galium aparine
In short: as §1

[6] = system: MOOVA (Monochoria); assay: Preemergence weed control under flooded paddy conditions; format: in vivo, Monochoria vaginalis; conditions: rated 3-4 weeks after treatment
In short: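 Visual injury scored 0-9 against control three to four weeks post-treatment, greenhouse-grown. Application: acetone/water (50/50) solutions dosed directly into flood water (1.5-3 cm over silt loam, planted top 0.5 cm), roughly 0.0313 to 0.500 kg/ha active ingredient.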

[7] = system: SETVI (Foxtail, Green); assay: Postemergence herbicidal evaluation; format: in vivo, Setaria viridis
In short: as §1

[8] = system: CYPIR (Rice Flatsedge); assay: Preemergence weed control under flooded paddy conditions; format: in vivo, Cyperus iria; conditions: rated 3-4 weeks after treatment
In short: (§3)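 Silt loam, seeds in top 0.5 cm; flood held 1.5-3 cm; test cpd as acetone/water 50/50 into flood water, ~0.0313-0.500 kg/ha a.i.; greenhouse 3-4 wk; visual 0-9 score vs control.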

[9] = system: TRZAWR (Wheat, Winter, cv Riband); assay: Postemergence herbicidal evaluation; format: in vivo, Triticum aestivum
In short: as §1

[10] = system: ECHORC (Watergrass (Calif.)); assay: Postemergence weed control under flooded paddy conditions; format: in vivo, Echinochloa oryzoides; conditions: postemergence weeds, 3-4 weeks after treatment
In short: (§4)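 Containers holding 3–5 cm weeds and rice at 1.5–2.5 leaves are flooded to 1.5–3 cm above soil. Compound in 50/50 v/v aqueous/acetone is then added directly to the water, about 0.0313–0.500 kg/ha. Plants are kept in the greenhouse and rated 0–9 visually at 3–4 weeks.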

[11] = system: ABUTH (Velvetleaf); assay: Preemergence herbicidal evaluation; format: in vivo, Abutilon theophrasti; conditions: rated 4-5 weeks after treatment
In short: as §2

[12] = system: SETVI (Foxtail, Green); assay: Preemergence herbicidal evaluation; format: in vivo, Setaria viridis; conditions: rated 4-5 weeks after treatment
In short: as §2

[13] = system: SAGPY (Arrowhead (Pygmaea)); assay: Postemergence weed control under flooded paddy conditions; format: in vivo, Sagittaria pygmaea; conditions: postemergence weeds, 3-4 weeks after treatment
In short: as §4

[14] = system: ECHORC (Watergrass (Calif.)); assay: Preemergence weed control under flooded paddy conditions; format: in vivo, Echinochloa oryzoides; conditions: rated 3-4 weeks after treatment
In short: as §3

CCOC(=O)CN1C(=O)C(CC(=O)O)O/C1=N/c1cc(-n2c(=O)cc(C(F)(F)F)n(C)c2=O)c(F)cc1Cl (stereo not drawn) [Compound 41, 2-{{2-Chloro-5-[3,6-dihydro-3-methyl-2,6-dioxo-4-(trifluoromethyl)-1(2H)-pyrimidinyl]-4-fluoro-phenyl}imino}-4-oxo-3,5-oxazolidinediacetic acid, 3-ethyl ester]
Postemergence herbicidal rating IPOHE ([1]; Rate 0.0158 kg/ha): 9.0 | Postemergence herbicidal rating IPOHE ([1]; Rate 0.0315 kg/ha): 9.0 | Postemergence herbicidal rating IPOHE ([1]; Rate 0.0630 kg/ha): 9.0 | Preemergence herbicidal rating ZEAMX ([2]; rate 0.0156 kg/ha): 0.0 | Preemergence herbicidal rating ZEAMX ([2]; rate 0.0313 kg/ha): 0.0 | Preemergence herbicidal rating ZEAMX ([2]; rate 0.0625 kg/ha): 1.0 | Preemergence herbicidal rating ZEAMX ([2]; rate 0.1250 kg/ha): 0.0 | Preemergence herbicidal rating ZEAMX ([2]; rate 0.2500 kg/ha): 2.0 | Preemergence herbicidal rating IPOHE ([3]; rate 0.0156 kg/ha): 0.0 | Preemergence herbicidal rating IPOHE ([3]; rate 0.0313 kg/ha): 0.0 | Preemergence herbicidal rating IPOHE ([3]; rate 0.0625 kg/ha): 7.0 | Preemergence herbicidal rating IPOHE ([3]; rate 0.1250 kg/ha): 9.0 | Preemergence herbicidal rating IPOHE ([3]; rate 0.2500 kg/ha): 9.0 | Preemergence herbicidal rating ECHCG ([4]; rate 0.0156 kg/ha): 0.0 | Preemergence herbicidal rating ECHCG ([4]; rate 0.0313 kg/ha): 0.0 | Preemergence herbicidal rating ECHCG ([4]; rate 0.0625 kg/ha): 0.0 | Preemergence herbicidal rating ECHCG ([4]; rate 0.1250 kg/ha): 0.0 | Preemergence herbicidal rating ECHCG ([4]; rate 0.2500 kg/ha): 2.0 | Postemergence herbicidal rating GALAP ([5]; Rate 0.0158 kg/ha): 1.0 | Postemergence herbicidal rating GALAP ([5]; Rate 0.0315 kg/ha): 2.0 | Postemergence herbicidal rating GALAP ([5]; Rate 0.0630 kg/ha): 5.0 | Herbicidal rating MOOVA ([6]; 0.0313 kg/ha): 6.0 | Herbicidal rating MOOVA ([6]; 0.0625 kg/ha): 9.0 | Herbicidal rating MOOVA ([6]; 0.1250 kg/ha): 9.0 | Herbicidal rating MOOVA ([6]; 0.2500 kg/ha): 9.0 | Postemergence herbicidal rating SETVI ([7]; Rate 0.0158 kg/ha): 1.0 | Postemergence herbicidal rating SETVI ([7]; Rate 0.0315 kg/ha): 3.0 | Postemergence herbicidal rating SETVI ([7]; Rate 0.0630 kg/ha): 9.0 | Herbicidal rating CYPIR ([8]; 0.0313 kg/ha): 0.0 | Herbicidal rating CYPIR ([8]; 0.0625 kg/ha): 0.0 | Herbicidal rating CYPIR ([8]; 0.1250 kg/ha): 0.0 | Herbicidal rating CYPIR ([8]; 0.2500 kg/ha): 4.0 | Postemergence herbicidal rating TRZAWR ([9]; Rate 0.0158 kg/ha): 4.0 | Postemergence herbicidal rating TRZAWR ([9]; Rate 0.0315 kg/ha): 4.0 | Postemergence herbicidal rating TRZAWR ([9]; Rate 0.0630 kg/ha): 5.0 | Herbicidal rating ECHORC ([10]; rate 0.0313 kg/ha): 3.0 | Herbicidal rating ECHORC ([10]; rate 0.0625 kg/ha): 4.0 | Herbicidal rating ECHORC ([10]; rate 0.1250 kg/ha): 6.0 | Herbicidal rating ECHORC ([10]; rate 0.2500 kg/ha): 7.0 | Preemergence herbicidal rating ABUTH ([11]; rate 0.0156 kg/ha): 7.0 | Preemergence herbicidal rating ABUTH ([11]; rate 0.0313 kg/ha): 9.0 | Preemergence herbicidal rating ABUTH ([11]; rate 0.0625 kg/ha): 9.0 | Preemergence herbicidal rating ABUTH ([11]; rate 0.1250 kg/ha): 9.0 | Preemergence herbicidal rating ABUTH ([11]; rate 0.2500 kg/ha): 9.0 | Preemergence herbicidal rating SETVI ([12]; rate 0.0156 kg/ha): 0.0 | Preemergence herbicidal rating SETVI ([12]; rate 0.0313 kg/ha): 0.0 | Preemergence herbicidal rating SETVI ([12]; rate 0.0625 kg/ha): 1.0 | Preemergence herbicidal rating SETVI ([12]; rate 0.1250 kg/ha): 1.0 | Preemergence herbicidal rating SETVI ([12]; rate 0.2500 kg/ha): 9.0 | Herbicidal rating SAGPY ([13]; rate 0.0313 kg/ha): 0.0 | Herbicidal rating SAGPY ([13]; rate 0.0625 kg/ha): 0.0 | Herbicidal rating SAGPY ([13]; rate 0.1250 kg/ha): 0.0 | Herbicidal rating SAGPY ([13]; rate 0.2500 kg/ha): 6.0 | Herbicidal rating ECHORC ([14]; 0.0313 kg/ha): 3.0 | Herbicidal rating ECHORC ([14]; 0.0625 kg/ha): 4.0 | Herbicidal rating ECHORC ([14]; 0.1250 kg/ha): 6.0 | Herbicidal rating ECHORC ([14]; 0.2500 kg/ha): 7.0

— patent publication US20020137929A1, “1 - (3-heterocyclylphenyl) isothiourea, -isourea, -guanidine and -amidine herbicidal agents” (Intellectual Property Department, BASF Aktiengesellschaft, priority 1998, published 2002)
